# Assay results reported in US8889874B2, “Imidazolone-chalcone derivatives as potential anticancer agent and process for the preparation thereof” (Council of Scientific and Industrial Research, priority 2010, dated 2014).
# Read-outs that look alike come from different tables or passages of the source.
# Columns and labels:
# Assay in all cases: NCI anticancer screen, SRB assay, 48 h
# Format in all cases: cell-based, human
# [1] = tested on: 786-0 (renal); conditions: Homo sapiens
# Method: (§1) Some of biological activity studies were carried out at the National Cancer Institute (NCI), Maryland, USA.
# (§2) The compounds were evaluated for anticancer activity against fifty three human cancer cells derived from nine cancer types (leukemia cell line, non-small-cell lung cell line, colon cell line, CNS cell line, melanoma cell line, ovarian cell line, prostate cell line, and breast cancer cell line) as shown in Table 1. For each compound, dose response curves for each cell line were measured at a minimum of five concentrations at 10 fold dilutions. A protocol of 48 h continuous drug exposure was used and a sulforhodamine B (SRB) protein assay was used to estimate cell viability or growth.
# [2] = tested on: A498 (renal); conditions: Homo sapiens
# Method: as §1, §2
# [3] = tested on: A549/ATCC (non-small cell lung); conditions: Homo sapiens
# Method: as §1, §2
# [4] = tested on: ACHN (renal); conditions: Homo sapiens
# Method: as §1, §2
# [5] = tested on: CAKI-1 (renal); conditions: Homo sapiens
# Method: as §1, §2
# [6] = tested on: COLO 205 (colon); conditions: Homo sapiens, COLO 205
# Method: as §1, §2
# [7] = tested on: EKVX (non-small cell lung); conditions: Homo sapiens
# Method: as §1, §2
# [8] = tested on: HCC-2998 (colon); conditions: Homo sapiens
# Method: as §1, §2
# [9] = tested on: HCT-15 (colon); conditions: Homo sapiens
# Method: as §1, §2
# [10] = tested on: HOP-62 (non-small cell lung); conditions: Homo sapiens
# Method: as §1, §2
# [11] = tested on: HT29 (colon); conditions: Homo sapiens
# Method: as §1, §2
# [12] = tested on: K-562 (leukemia cell line); conditions: Homo sapiens
# Method: as §1, §2
# [13] = tested on: KM12 (colon); conditions: Homo sapiens
# Method: as §1, §2
# [14] = tested on: LOX IMVI (melanoma); conditions: Homo sapiens
# Method: as §1, §2
# [15] = tested on: MALME-3M (melanoma); conditions: Homo sapiens
# Method: as §1, §2
# [16] = tested on: MCF7 (breast); conditions: Homo sapiens
# Method: as §1, §2
# [17] = tested on: MDA-MB-231/ATCC (breast); conditions: Homo sapiens
# Method: as §1, §2
# [18] = tested on: MDA-MB-435 (melanoma); conditions: Homo sapiens
# Method: as §1, §2
# [19] = tested on: NCI-H226 (non-small cell lung); conditions: Homo sapiens
# Method: as §1, §2
# [20] = tested on: NCI-H23 (non-small cell lung); conditions: Homo sapiens
# Method: as §1, §2
# [21] = tested on: NCI-H322M (non-small cell lung); conditions: Homo sapiens
# Method: as §1, §2
# [22] = tested on: NCI/ADR-RES (ovarian); conditions: Homo sapiens, NCI/ADR-RES
# Method: as §1, §2
# [23] = tested on: OVCAR-4 (ovarian); conditions: Homo sapiens
# Method: as §1, §2
# [24] = tested on: OVCAR-5 (ovarian); conditions: Homo sapiens
# Method: as §1, §2
# [25] = tested on: OVCAR-8 (ovarian); conditions: Homo sapiens
# Method: as §1, §2
# [26] = tested on: PC-3 (prostate); conditions: Homo sapiens
# Method: as §1, §2
# [27] = tested on: RPMI-8226 (leukemia cell line); conditions: Homo sapiens
# Method: as §1, §2
# [28] = tested on: SK-MEL-5 (melanoma); conditions: Homo sapiens
# Method: as §1, §2
# [29] = tested on: SN12C (renal); conditions: Homo sapiens, SN12C
# Method: as §1, §2
# [30] = tested on: SNB-19 (CNS); conditions: Homo sapiens
# Method: as §1, §2
# [31] = tested on: SNB-75 (CNS); conditions: Homo sapiens
# Method: as §1, §2
# [32] = tested on: TK-10 (renal); conditions: Homo sapiens
# Method: as §1, §2
# [33] = tested on: U251 (CNS); conditions: Homo sapiens
# Method: as §1, §2
# [34] = tested on: UACC-257 (melanoma); conditions: Homo sapiens
# Method: as §1, §2
# [35] = 48 h exposure, SRB, read-out: GI50
# [36] = read-out: pGI50 (-log of molar concentration causing 50% inhibition of net cell growth) (converted)
compound,measurement,setting,value
"COc1cc(/C=C/C(=O)c2cccc(-n3cc(-c4cc(OC)c(OC)c(OC)c4)[nH]c3=O)c2)cc(OC)c1OC [5d, 4-(3,4,5-trimethoxyphenyl)-1-3-[(E)-3-(3,4,5-trimethoxyphenyl)-2-propenoyl]phenyl-2,3-dihydro-1H-2-imidazolone]",GI50,[1]; [35],1.59 µM
same,GI50,[1]; [36],1.58 µM
same,GI50,[2]; [35],20.3 µM
same,GI50,[2]; [36],20.4 µM
same,GI50,[3]; [35],3.03 µM
same,GI50,[3]; [36],3.02 µM
same,GI50,[4]; [35],1.74 µM
same,GI50,[4]; [36],1.74 µM
same,GI50,[5]; [35],2.89 µM
same,GI50,[5]; [36],2.88 µM
same,GI50,"[6]; COLO205, read-out: pGI50 (-log of molar concentration causing 50% inhibition of net cell growth) (converted)",1.51 µM
same,GI50,[6]; [35],1.52 µM
same,GI50,[7]; [35],9.47 µM
same,GI50,[7]; [36],9.55 µM
same,GI50,[8]; [35],1.92 µM
same,GI50,[8]; [36],1.91 µM
same,GI50,[9]; [35],1.89 µM
same,GI50,[9]; [36],1.91 µM
same,GI50,[10]; [35],3.08 µM
same,GI50,[10]; [36],3.09 µM
same,GI50,"[11]; HT-29, 48 h exposure, SRB, read-out: GI50",1.7 µM
same,GI50,"[11]; HT-29, read-out: pGI50 (-log of molar concentration causing 50% inhibition of net cell growth) (converted)",1.7 µM
same,GI50,"[12]; K562, 48 h exposure, SRB, read-out: GI50",0.59 µM
same,GI50,"[12]; K562, read-out: pGI50 (-log of molar concentration causing 50% inhibition of net cell growth) (converted)",0.589 µM
same,GI50,[13]; [35],1.12 µM
same,GI50,[13]; [36],1.12 µM
same,GI50,[14]; [35],1.23 µM
same,GI50,[14]; [36],1.23 µM
same,GI50,"[15]; Malme-3M, read-out: pGI50 (-log of molar concentration causing 50% inhibition of net cell growth) (converted)",1.82 µM
same,GI50,"[15]; MALME-3M, 48 h exposure, SRB, read-out: GI50",1.8 µM
same,GI50,[16]; [35],0.47 µM
same,GI50,[16]; [36],0.468 µM
same,GI50,[17]; [35],4.19 µM
same,GI50,[17]; [36],4.17 µM
same,GI50,[18]; [35],2.11 µM
same,GI50,[18]; [36],2.09 µM
same,GI50,[19]; [35],14.4 µM
same,GI50,[19]; [36],14.5 µM
same,GI50,[20]; [35],2 µM
same,GI50,[20]; [36],2 µM
same,GI50,[21]; [35],3.61 µM
same,GI50,[21]; [36],3.63 µM
same,GI50,"[22]; NCl/ADR-RES, 48 h exposure, SRB, read-out: GI50",2.1 µM
same,GI50,[22]; [36],2.09 µM
same,GI50,[23]; [35],3.77 µM
same,GI50,[23]; [36],3.8 µM
same,GI50,[24]; [35],4.38 µM
same,GI50,[24]; [36],4.37 µM
same,GI50,[25]; [35],2.32 µM
same,GI50,[25]; [36],2.34 µM
same,GI50,"[26]; PC-3, read-out: pGI50 (-log of molar concentration causing 50% inhibition of net cell growth) (converted)",2.63 µM
same,GI50,"[26]; one prostate cancer cell line (PC-3), exposure at least 48 hrs, read-out: GI50",2.63 µM
same,GI50,[27]; [35],0.23 µM
same,GI50,[27]; [36],0.229 µM
same,GI50,[28]; [35],2.76 µM
same,GI50,[28]; [36],2.75 µM
same,GI50,"[29]; SN 12C, read-out: pGI50 (-log of molar concentration causing 50% inhibition of net cell growth) (converted)",2.75 µM
same,GI50,[29]; [35],2.75 µM
same,GI50,[30]; [35],4.07 µM
same,GI50,[30]; [36],4.07 µM
same,GI50,[31]; [35],5.13 µM
same,GI50,[31]; [36],5.13 µM
same,GI50,[32]; [35],3 µM
same,GI50,[32]; [36],3.02 µM
same,GI50,"[33]; U-251, 48 h exposure, SRB, read-out: GI50",1.23 µM
same,GI50,"[33]; U-251, read-out: pGI50 (-log of molar concentration causing 50% inhibition of net cell growth) (converted)",1.23 µM
same,GI50,[34]; [35],2.22 µM
same,GI50,[34]; [36],2.24 µM
